Test results published in the NIST ThermoML archive (doi:10.1021/acs.jced.7b00712).

Conditions: Liquid, Brillouin light scattering

CCCCCCCC [octane]
Conditions | speed of sound [m/s]
296.97 K, 100 kPa | 1173
297.28 K, 4000 kPa | 1196.5
297.34 K, 7000 kPa | 1222
297.35 K, 12000 kPa | 1250.8
297.38 K, 10000 kPa | 1242.7
303.33 K, 7000 kPa | 1199.7
303.38 K, 10000 kPa | 1213.7
303.42 K, 12000 kPa | 1233
303.53 K, 4000 kPa | 1172.7
303.61 K, 100 kPa | 1151.7
318.11 K, 10000 kPa | 1164.8
318.3 K, 4000 kPa | 1121.2
318.35 K, 7000 kPa | 1141.4
318.37 K, 100 kPa | 1089.5
318.37 K, 12000 kPa | 1184.5
332.26 K, 4000 kPa | 1066.7
332.32 K, 10000 kPa | 1108.6
332.33 K, 7000 kPa | 1089.1
332.5 K, 100 kPa | 1029.1
332.56 K, 12000 kPa | 1128.3
347.29 K, 7000 kPa | 1031.9
347.37 K, 10000 kPa | 1053.4
347.4 K, 4000 kPa | 1007.2
347.46 K, 12000 kPa | 1072.7
347.68 K, 100 kPa | 970.1
362.12 K, 10000 kPa | 1006.2
362.17 K, 7000 kPa | 979.6
362.28 K, 4000 kPa | 955.4
362.53 K, 100 kPa | 912.3
363.67 K, 12000 kPa | 1027.8
377.03 K, 4000 kPa | 909.7
377.33 K, 7000 kPa | 933.5
377.35 K, 10000 kPa | 960.5
377.5 K, 100 kPa | 855.4
379.75 K, 12000 kPa | 973.9
390.8 K, 4000 kPa | 860.1
391 K, 7000 kPa | 892.3
391.09 K, 10000 kPa | 917.4
391.61 K, 100 kPa | 806.4
394.67 K, 12000 kPa | 920.8
403.71 K, 12000 kPa | 896.1
407.38 K, 4000 kPa | 802.1
407.45 K, 10000 kPa | 865.2
407.46 K, 7000 kPa | 836.9
412.59 K, 4000 kPa | 786.2
412.65 K, 7000 kPa | 818.8
412.71 K, 10000 kPa | 846.7
414.33 K, 12000 kPa | 864
422.61 K, 10000 kPa | 818.2
422.69 K, 12000 kPa | 844.3
422.73 K, 4000 kPa | 747.2
422.88 K, 7000 kPa | 784.5
431.77 K, 12000 kPa | 815.2
431.82 K, 4000 kPa | 720.1
431.88 K, 7000 kPa | 754.2
431.92 K, 10000 kPa | 789.8
442.23 K, 4000 kPa | 682.1
442.49 K, 7000 kPa | 723.8
442.65 K, 10000 kPa | 755.7
442.73 K, 12000 kPa | 779.7
452.55 K, 4000 kPa | 646.4
452.64 K, 7000 kPa | 689.9
452.77 K, 10000 kPa | 728.1
452.88 K, 12000 kPa | 750.8
462.37 K, 4000 kPa | 614.7
462.45 K, 7000 kPa | 660.1
462.61 K, 12000 kPa | 724.2
465.54 K, 10000 kPa | 695.8
472.05 K, 4000 kPa | 579.7
472.15 K, 7000 kPa | 631.6
472.28 K, 10000 kPa | 676.9
472.38 K, 12000 kPa | 693.8
482.98 K, 4000 kPa | 543
483.04 K, 7000 kPa | 599.7
483.12 K, 10000 kPa | 646.1
483.14 K, 12000 kPa | 672.7
493.41 K, 4000 kPa | 503.5
493.48 K, 7000 kPa | 565.4
493.62 K, 10000 kPa | 614.7
493.73 K, 12000 kPa | 645
502.54 K, 4000 kPa | 477.8
502.73 K, 7000 kPa | 537.1
502.95 K, 10000 kPa | 590.5
503.17 K, 12000 kPa | 616.5
513 K, 4000 kPa | 439.1
513.26 K, 7000 kPa | 506.5
513.46 K, 10000 kPa | 563.1
513.67 K, 12000 kPa | 591.5
522.92 K, 4000 kPa | 407.7
523.17 K, 12000 kPa | 570.6
523.46 K, 7000 kPa | 478.6
523.6 K, 10000 kPa | 533.3
532.23 K, 4000 kPa | 373.2
532.36 K, 7000 kPa | 450.6
532.59 K, 10000 kPa | 511.4
532.79 K, 12000 kPa | 545.1
537.4 K, 4000 kPa | 354.7
537.75 K, 7000 kPa | 436.8
538.1 K, 10000 kPa | 497.5
538.41 K, 12000 kPa | 530.4
542.87 K, 4000 kPa | 337.8
543.27 K, 12000 kPa | 520.1
543.83 K, 7000 kPa | 422
544.52 K, 10000 kPa | 483.1
546.68 K, 4000 kPa | 325.7
547.82 K, 7000 kPa | 406.8
548.6 K, 10000 kPa | 471.5
549.27 K, 12000 kPa | 505.4
550.42 K, 4000 kPa | 315.2
552.01 K, 7000 kPa | 398.1
552.52 K, 10000 kPa | 465.1
552.88 K, 12000 kPa | 500.8
557.27 K, 4000 kPa | 290.5
558.19 K, 7000 kPa | 380.2
558.64 K, 10000 kPa | 448
559.37 K, 12000 kPa | 486.2
561.2 K, 4000 kPa | 276.7
561.87 K, 7000 kPa | 372.6
562.27 K, 10000 kPa | 441.3
562.71 K, 12000 kPa | 477.8
566.82 K, 7000 kPa | 356.5
566.96 K, 10000 kPa | 430.4
567.01 K, 4000 kPa | 257.3
567.1 K, 12000 kPa | 471
570.16 K, 4000 kPa | 245.6
570.2 K, 7000 kPa | 347.6
570.48 K, 10000 kPa | 424
570.75 K, 12000 kPa | 461
